According to US10561703B2, “Method of modulating sex hormone levels using a sex hormone secretion modulator” (GEMVAX & KAEL CO., LTD., priority 2013, dated 2020):

Tested on: WPMY-1
Assay: Cell proliferation (CCK-8) in prostate mesenchymal cell line
Assay type: cell-based
Experimental: When testosterone is injected into the body, testosterone becomes dihydrotestosterone (DHT) due to 5α-reductase, which stimulates the proliferation of prostate cells and induces benign prostatatic hyperplasia (BPH). Based on these facts, a PEP-1 (GV1001) injection experiment was performed for the inhibition of proliferation of prostatic cells in the following manner: The cell lines were mesenchymal cell lines (WPMY-1) and epithelial cell lines (RWPE-1) of prostates obtained from BPH animal models. […] Observation of changes in the proliferation was performed by suctioning a culture medium, adding 10 μL of CCK-8 solution to each well, and measuring an optical density at 450 nm for 1 hour to about 4 hours.

EARPALLTSRLRFIPK (listed as Homo sapiens) [PEP-1, hormone secretion modulator / GnRH analog]
Cell proliferation (optical density at 450 nm) versus untreated cells (WPMY-1, 100 and 200 μM GV1001, no DHT): did not show a substantial difference in optical densities | Inhibition of DHT-induced cell proliferation (WPMY-1, 100 and 200 μM GV1001 with 25 nM DHT): substantial inhibition effects on proliferation
